Active and inactive are the calls of the source. The calls are words filed in the database; no cut-off is given here.
Key:
[1] = Inhibition of EGF-stimulated viability of mouse JB6 Cl41 cells after 22 hrs by MTS assay; assay type: functional, cell-based; settings: JB6 Cl41, 22 h
HL-60 [2] = experiment: Cytotoxicity against human HL60 cells after 22 hrs by MTS assay; assay type: functional, cell-based; settings: HL-60, 22 h
THP-1 = experiment: Cytotoxicity against human THP1 cells after 22 hrs by MTS assay; assay type: functional, cell-based; settings: THP-1, 22 h
HeLa = experiment: Cytotoxicity against human HeLa cells after 22 hrs by MTS assay; assay type: functional, cell-based
MDA-MB-231 = experiment: Cytotoxicity against human MDA-MB-231 cells after 22 hrs by MTS assay; assay type: functional, cell-based; settings: MDA-MB-231, 22 h
DLD-1 = experiment: Cytotoxicity against human DLD1 cells after 22 hrs by MTS assay; assay type: functional, cell-based; settings: DLD-1, 22 h
[3] = Cytotoxicity against human SNUC4 cells after 22 hrs by MTS assay; assay type: functional, cell-based; settings: SNU-C4, 22 h
SK-MEL-28 = experiment: Cytotoxicity against human SK-MEL-28 cells after 22 hrs by MTS assay; assay type: functional, cell-based; settings: SK-MEL-28, 22 h
HL-60 [4] = experiment: Induction of apoptosis in human HL60 cells assessed as total apoptotic cells at 50 to 100 nM after 24 hrs by FITC-conjugated annexin V and propidium iodide staining-based flow cytometry; assay type: functional
HL-60 [5] = experiment: Induction of apoptosis in human HL60 cells assessed as total apoptotic cells at 1000 nM after 24 hrs by FITC-conjugated annexin V and propidium iodide staining-based flow cytometry; assay type: functional
HL-60 [6] = experiment: Induction of apoptosis in human HL60 cells assessed as early apoptotic cells at 50 nM after 24 hrs by FITC-conjugated annexin V and propidium iodide staining-based flow cytometry; assay type: functional
HL-60 [7] = experiment: Induction of apoptosis in human HL60 cells assessed as early apoptotic cells at 250 nM after 24 hrs by FITC-conjugated annexin V and propidium iodide staining-based flow cytometry; assay type: functional
HL-60 [8] = experiment: Induction of apoptosis in human HL60 cells assessed as early apoptotic cells at 500 to 1000 nM after 24 hrs by FITC-conjugated annexin V and propidium iodide staining-based flow cytometry; assay type: functional
HL-60 [9] = experiment: Induction of apoptosis in human HL60 cells assessed as decrease in procaspase-8 level at 500 nM after 24 hrs by Western blot analysis; assay type: functional, cell-based
HL-60 [10] = experiment: Induction of apoptosis in human HL60 cells assessed as decrease in procaspase-9 level at 500 nM after 24 hrs by Western blot analysis; assay type: functional, cell-based
HL-60 [11] = experiment: Induction of apoptosis in human HL60 cells assessed as decrease in procaspase-3 level at 500 nM after 24 hrs by Western blot analysis; assay type: functional, cell-based
HL-60 [12] = experiment: Induction of apoptosis in human HL60 cells assessed as decrease in Bid protein level at 500 nM after 24 hrs by Western blot analysis; assay type: functional, cell-based
HL-60 [13] = experiment: Induction of apoptosis in human HL60 cells assessed as decrease in PARP level at 250 nM after 24 hrs by Western blot analysis; assay type: functional, cell-based
HL-60 [14] = experiment: Induction of apoptosis in human HL60 cells assessed as decrease in PARP level at 500 nM after 24 hrs by Western blot analysis; assay type: functional, cell-based
HL-60 [15] = experiment: Induction of apoptosis in human HL60 cells assessed as change in mitochondrial permeability at 250 nM after 24 hrs by DiOC6 staining-based flow cytometry (RVB = 90.3%); assay type: functional

Q: For `O=C1c2ccccc2-[n+]2ccc3c([nH]c4cc(Br)ccc43)c21.[Cl-]`, which IC50 [1] is on record?
A: The IC50 was 144 nM.

Q: What about the IC50 (HL-60 [2]) of the same compound?
A: The IC50 was 142 nM.

Q: What about the IC50 (THP-1) of the same compound?
A: Its IC50 is 161 nM.

Q: And the IC50 (HeLa)?
A: Its IC50 is 86 nM.

Q: What about the IC50 (MDA-MB-231) of the same compound?
A: Its IC50 is 173 nM.

Q: And the IC50 (DLD-1)?
A: Its IC50 is 118 nM.

Q: What about the IC50 [3] of the same compound?
A: Its IC50 is 125 nM.

Q: What about the IC50 (SK-MEL-28) of the same compound?
A: The IC50 was greater than 1000 nM.

Q: And the Activity (HL-60 [4])?
A: Its Activity is 20%.

Q: And the Activity (HL-60 [5])?
A: Its Activity is 90%.

Q: And the Activity (HL-60 [6])?
A: The Activity was 5%.

Q: And the Activity (HL-60 [7])?
A: The Activity was 40%.

Q: What about the Activity (HL-60 [8]) of the same compound?
A: Its Activity is 20%.

Q: What about the inhibition (HL-60 [9]) of the same compound?
A: Its inhibition is “Active”.

Q: What about the inhibition (HL-60 [10]) of the same compound?
A: Its inhibition is “Active”.

Q: What about the inhibition (HL-60 [11]) of the same compound?
A: Its inhibition is “Active”.

Q: What about the inhibition (HL-60 [12]) of the same compound?
A: Its inhibition is “Active”.

Q: And the inhibition (HL-60 [13])?
A: Its inhibition is “Active”.

Q: What about the inhibition (HL-60 [14]) of the same compound?
A: The inhibition was “Active”.

Q: And the Activity (HL-60 [15])?
A: Its Activity is 60.1%.
